# Where “and” joins values, the source holds several entries; their conditions need not be identical. Equal entries are not always repeated.
# What was measured:
# [1] = Daily observation of fish for behavior, adverse drug reactions and mortalities (three studies); assay type: in vivo, Atlantic salmon, Salmo salar L.; settings: any of the doses tested (25, 50, 100 μg kg^−1 per day, 7 days in feed)
# Description: (§1) Fish were held in replicate groups in plastic fiber tanks, each with a volume of 0.54 m^3. Each tank was supplied with natural sea water at ambient temperature (7-14° C.) and salinity (30-35 ppt), at flow rates of approximately 18 l. min^−1. The tanks were fitted with mesh screens over the water outlet to retain uneaten fish pellets. Fish were observed daily for behavior and adverse drug reactions. Fish mortalities and the occurrence of gross sea lice damage were also recorded.
# [2] = tested on: sea lice, Lepeophtheirus salmonis; experiment: Dose confirmation study I: efficacy of emamectin benzoate in feed against induced sea lice infestations on Atlantic salmon; assay type: in vivo; settings: for Percentage fish mortality: mortality attributed to sea lice damage, includes culled fish
# Description: (§2) Three studies were carried out at the Institute of Aquaculture Marine Environmental Research Laboratory in Machrihanish, Scotland. Atlantic salmon, Salmo salar L., post-smolts were obtained from a disease free stock and acclimatised at the test facility.
# as §1
# (§3) Sea lice were collected during harvesting on commercial salmon farms on the west coast of Scotland. Egg strings collected from gravid female lice were incubated in sea water at ambient temperature and within a salinity range of 32-35 ppt. Once the hatched larvae reached the copepodite stage, 38-170 copepodites per fish were introduced into each of four replicate tanks of fish and the water supply to each tank was turned off for approximately three hours to allow attachment of copepodites to the fish. This was repeated 4-5 times at intervals of 3-5 days until chalimus stages I, II, III and IV were present. Chalimus numbers were evaluated at day −1 or day −2 pre-treatment, on sub-samples of fish (N=6-9 fish per tank). At this point, fish were infested with pre-adult and adult lice, by adding 5-10 lice per fish to each tank. Water supplies to each tank were turned off for around one hour until all the lice had attached to the fish. Pre-treatment lice numbers were based on a sub-sample of the total population and presented as the mean number of chalimus per fish. Fish were then randomly re-distributed from the four original tanks to each control or treatment tank, as described in the experimental design for each study, and no further infestations were carried out during or after treatment.
# (§4) The basal ration was Fulmar™ (BOCM Pauls Ltd.) 3.5 or 5 mm salmon feed pellets. Emamectin benzoate was dissolved in propylene glycol and mixed with fish oil prior to top coating the feed pellets. Control feeds were prepared in the same way with propylene glycol and fish oil. Treatment was administered at nominal dose rates of 0, 25, 50 and 100 μg kg^−1 fish biomass per day, at a feed rate of 0.5% biomass, for a period of seven consecutive days (days 0-6). Actual daily feed consumption was measured in each tank by collecting the uneaten feed pellets approximately thirty minutes after administration and subtracting the number of pellets from the daily ration fed. The mean dose consumed was calculated for each group as follows: [formula] Mean feed consumption (%)×nominal dose rate (μg·kg^−1)=Mean dose consumed (μg·kg^−1)
# (§5) Evaluation of sea lice numbers was carried out at 7, 14 and 21 days from the start of treatment. Fish were anaesthetised in 40 mg·l^−1 ethyl-P-aminobenzoate (benzocaine) and each fish examined under a low power microscope. Lice were identified as chalimus I-IV, pre-adult I or II and adult stages. Pre-adults and adult lice were additionally identified as males or females. The numbers of each developmental stage were recorded. Any lice which detached in the anaesthetic solution were included in the counts and reattached to the fish after transferring them to fresh seawater. The fish were returned to the holding tanks after sampling and the same fish were evaluated at days 7, 14 and 21.
# The water temperature was 12-14° C. and salinity was 33-35 ppt. Pre-treatment, mean fish weights were 224 g (±43 g S.D). Emamectin benzoate was administered at nominal daily dose rates of 0, 25, and 50 μg kg^−1 biomass. There were three replicate tanks per treatment with 15 fish per tank. […]
# [3] = tested on: sea lice, Lepeophtheirus salmonis; experiment: Dose titration study: efficacy of emamectin benzoate in feed against induced sea lice infestations on Atlantic salmon; assay type: in vivo; settings: for Percentage fish mortality: mortality attributed to sea lice damage, includes culled fish
# Description: as §2, §1, §3, §4, §5
# The water temperature was 7-10° C. and salinity was 33-34 ppt. Pre-treatment, mean fish weights were 192 g (±30 g S.D). Emamectin benzoate was administered at nominal daily dose rates of 0, 25, 50 and 100 μg kg^−1 fish biomass. There were two replicate tanks per treatment with a sample size of 19 or 20 fish per tank. […]
# [4] = nominal dose 25 μg·kg^−1/day (consumed 20.2) in feed Day 0-6, Day 7
# [5] = nominal dose 25 μg·kg^−1/day (consumed 20.2) in feed Day 0-6, day 21
# [6] = nominal dose 25 μg·kg^−1/day in feed Day 0-6, Day 14
# [7] = nominal dose 25 μg·kg^−1/day in feed Day 0-6, Day 21
# [8] = nominal dose 50 μg·kg^−1/day (consumed 44.3) in feed Day 0-6, Day 7
# [9] = nominal dose 50 μg·kg^−1/day (consumed 44.3) in feed Day 0-6, day 21
# [10] = nominal dose 50 μg·kg^−1/day in feed Day 0-6, Day 14
# [11] = nominal dose 50 μg·kg^−1/day in feed Day 0-6, Day 21
# [12] = nominal dose 25 μg·kg^−1/day (consumed 21.5) in feed Day 0-6, Day 7
# [13] = nominal dose 25 μg·kg^−1/day (consumed 21.5) in feed Day 0-6, day 21
# [14] = nominal dose 50 μg·kg^−1/day (consumed 45.0) in feed Day 0-6, Day 7
# [15] = nominal dose 50 μg·kg^−1/day (consumed 45.0) in feed Day 0-6, day 21
# [16] = nominal dose 100 μg·kg^−1/day (consumed 91.0) in feed Day 0-6, Day 7
# [17] = nominal dose 100 μg·kg^−1/day (consumed 91.0) in feed Day 0-6, day 21
# [18] = nominal dose 100 μg·kg^−1/day in feed Day 0-6, Day 14
# [19] = nominal dose 100 μg·kg^−1/day in feed Day 0-6, Day 21
substance,measurement,setting,value
emamectin benzoate,adverse effects or fish mortality attributed to treatment,[1],No adverse effects or fish mortality
same,% Reduction relative to controls (Total lice),[2]; [4],43.8%
same,Mean Total lice (± S.D),[2]; [4],34.2 ± 15.8
same,Mean chalimus (± S.D),[2]; [4],1.8 ± 1.7
same,Mean motiles (± S.D),[2]; [4],32.4 ± 15.4
same,% Reduction relative to controls (Total lice),"[2]; nominal dose 25 μg·kg^−1/day (consumed 20.2) in feed Day 0-6, Day 21",82% and 81.9%
same,Percentage of fish with no lice present (chalimus or motiles),[2]; [5],3%
same,Percentage of fish with no motile lice present,[2]; [5],6.1%
same,% Reduction relative to controls (Total lice),[2]; [6],76.0%
same,Mean Total lice (± S.D),[2]; [6],9.8 ± 4.4
same,Mean chalimus (± S.D),[2]; [6],0.30
same,Mean motiles (± S.D),[2]; [6],9.5 ± 4.4
same,Mean Total lice (± S.D),[2]; [7],4.9 and 4.9 ± 3.1
same,Mean chalimus (± S.D),[2]; [7],0
same,Mean motiles (± S.D),[2]; [7],4.9 ± 3.1
same,Percentage fish mortality,[2]; nominal dose 25 μg·kg^−1/day,31%
same,% Reduction relative to controls (Total lice),[2]; [8],53.8%
same,Mean Total lice (± S.D),[2]; [8],28.1 ± 13.1
same,Mean chalimus (± S.D),[2]; [8],3.2 ± 2.2
same,Mean motiles (± S.D),[2]; [8],24.9 ± 13.2
same,% Reduction relative to controls (Total lice),"[2]; nominal dose 50 μg·kg^−1/day (consumed 44.3) in feed Day 0-6, Day 21",94% and 94.3%
same,Percentage of fish with no lice present (chalimus or motiles),[2]; [9],28.6%
same,Percentage of fish with no motile lice present,[2]; [9],28.6%
same,% Reduction relative to controls (Total lice),[2]; [10],88.0%
same,Mean Total lice (± S.D),[2]; [10],4.9 ± 2.7
same,Mean chalimus (± S.D),[2]; [10],0.6
same,Mean motiles (± S.D),[2]; [10],4.3 ± 2.6
same,Mean Total lice (± S.D),[2]; [11],1.6 and 1.6 ± 1.3
same,Mean chalimus (± S.D),[2]; [11],0
same,Mean motiles (± S.D),[2]; [11],1.6 ± 1.4
same,Percentage fish mortality,[2]; nominal dose 50 μg·kg^−1/day,27%
same,reduction of total mean numbers of lice compared to the control groups,"[2]; treated groups (25 and 50 μg kg^−1), day 7",44-54%
same,total lice numbers lower than in the control groups,"[2]; treated groups (25 and 50 μg kg^−1), day 21",82-94%
same,reduction of total numbers of lice per fish compared to the control groups,"[3]; all treatment groups (25, 50, 100 μg kg^−1), day 7",35.4-37.5%
same,% Reduction relative to controls (Total lice),[3]; [12],36.2%
same,Mean Total lice (± S.D),[3]; [12],32.6 ± 10.7
same,Mean chalimus (± S.D),[3]; [12],20.9 ± 8.6
same,Mean motiles (± S.D),[3]; [12],11.7 ± 6.0
same,% Reduction relative to controls (Total lice),"[3]; nominal dose 25 μg·kg^−1/day (consumed 21.5) in feed Day 0-6, Day 21",89.8%
same,Percentage of fish with no lice present (chalimus or motiles),[3]; [13],13.8%
same,Percentage of fish with no motile lice present,[3]; [13],55.0%
same,% Reduction relative to controls (Total lice),[3]; [6],70.8%
same,Mean Total lice (± S.D),[3]; [6],13.1 ± 6.9
same,Mean chalimus (± S.D),[3]; [6],9.7 ± 3.9
same,Mean motiles (± S.D),[3]; [6],3.4 ± 6.4
same,Mean Total lice (± S.D),[3]; [7],3.5 ± 2.7
same,Mean chalimus (± S.D),[3]; [7],2.4 ± 1.9
same,Mean motiles (± S.D),[3]; [7],1.1 ± 2.2
same,Percentage fish mortality,[3]; nominal dose 25 μg·kg^−1/day,0%
same,% Reduction relative to controls (Total lice),[3]; [14],37.5%
same,Mean Total lice (± S.D),[3]; [14],31.9 ± 11.4
same,Mean chalimus (± S.D),[3]; [14],24.8 ± 10.3
same,Mean motiles (± S.D),[3]; [14],7.1 ± 4.1
same,% Reduction relative to controls (Total lice),"[3]; nominal dose 50 μg·kg^−1/day (consumed 45.0) in feed Day 0-6, Day 21",95.2%
same,Percentage of fish with no lice present (chalimus or motiles),[3]; [15],22.5%
same,Percentage of fish with no motile lice present,[3]; [15],87.5%
same,% Reduction relative to controls (Total lice),[3]; [10],70.3%
same,Mean Total lice (± S.D),[3]; [10],13.4 ± 5.9
same,Mean chalimus (± S.D),[3]; [10],12.4 ± 3.5
same,Mean motiles (± S.D),[3]; [10],1.0 ± 1.2
same,Mean Total lice (± S.D),[3]; [11],1.7 and 1.7 ± 1.3
same,Mean chalimus (± S.D),[3]; [11],1.6 ± 1.5
same,Mean motiles (± S.D),[3]; [11],0.1 ± 0.3
same,Percentage fish mortality,[3]; nominal dose 50 μg·kg^−1/day,0%
same,% Reduction relative to controls (Total lice),[3]; [16],35.4%
same,Mean Total lice (± S.D),[3]; [16],33.0 ± 10.7
same,Mean chalimus (± S.D),[3]; [16],29.0 ± 9.8
same,Mean motiles (± S.D),[3]; [16],4.0 ± 3.6
same,% Reduction relative to controls (Total lice),"[3]; nominal dose 100 μg·kg^−1/day (consumed 91.0) in feed Day 0-6, Day 21",95.8%
same,Percentage of fish with no lice present (chalimus or motiles),[3]; [17],28.2%
same,Percentage of fish with no motile lice present,[3]; [17],87.0%
same,% Reduction relative to controls (Total lice),[3]; [18],66.4%
same,Mean Total lice (± S.D),[3]; [18],15.1 ± 5.8
same,Mean chalimus (± S.D),[3]; [18],14.1 ± 5.5
same,Mean motiles (± S.D),[3]; [18],1.0 ± 3.2
same,Mean Total lice (± S.D),[3]; [19],1.5 ± 1.6
same,Mean chalimus (± S.D),[3]; [19],1.2 ± 1.2
same,Mean motiles (± S.D),[3]; [19],0.3 ± 1.0
same,Percentage fish mortality,[3]; nominal dose 100 μg·kg^−1/day,2.5%
same,mean numbers of motile lice in the treated groups,"[3]; treated groups (25, 50, 100 μg kg^−1), day 21",0.1-1.1 per fish
